Test results as given in PubChem BioAssay (NCI).
“And” between values parts separate entries of the source, which are not always exact repeats. Equal values may be shown once.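 Compound exposure: 48 hours, 5 concentrations, 96-well plates. Here, GI50 denotes the concentration required for 50% inhibition of growth. TGI denotes the concentration required for complete inhibition of growth.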

What follows are molecules tested on RPMI-8226 leukemia (assay: NCI tumour cell line growth inhibition, 48 h).

Structure (SMILES) | GI50 [µM] | TGI [µM]
CN(C)CC[PH+](c1ccccc1)c1ccccc1.CN(C)CC[PH+](c1ccccc1)c1ccccc1.[Cl-].[Pd+2] | 99.8 | > 100
Cc1nn(-c2ccc(Cl)cc2)c2nc3c(nc12)C(=O)c1ccccc1-3 | > 100 | > 100
O=C(c1ccccc1Br)C(F)(F)F | – | > 100
COc1ccc(NC(=O)/C(Cc2cc(=O)oc3cc(O)ccc23)=N\NC(C)(C)C)c(OC)c1 | – | > 100
CCOc1ccc(NC(=O)C(=O)CC(=O)c2c(C)n([O-])c3ccccc3[n+]2=O)cc1 | – | > 100
CCCC(=O)Nc1cc2c3c(c1)CCCN3CCC2 | – | > 10
Cc1cc(Cl)ccc1NC(=O)C(=O)Cc1nc2ccccc2o1 | – | > 100
OCC1OC(c2nc(C3=NCCCN3)cs2)C(O)C1O (stereo not given) | – | > 100
CCC(C)COC(=O)c1ccc(N=Cc2ccc(C=Nc3ccc(C(=O)OCC(C)CC)cc3)cc2)cc1 (stereo not given) | – | > 100
COc1cc(F)ccc1-c1ncnc(Nc2cccc(CS(C)(=N)=O)c2)n1 (stereo not given) | 3.17 | 61
Cc1cc(N(CCC#N)CCC#N)ccc1N=Nc1ccc(C(=O)O)cc1 | – | > 100
[Cl][Hg][c]1cc[c]([Hg][Cl])o1 | 1.66 | 7.34
CN(C)CC1CCCC/C1=N/OC(=O)c1ccc(Cl)cc1 (stereo not given) | – | > 100
N#CC(C(=O)C(=O)C(C#N)c1ccc(Br)cc1)c1ccc(Br)cc1 (stereo not given) | – | > 100
COc1cccc(C2=NC(C(C)C)CO2)c1 (stereo not given) | – | > 100
O=C1/C(=C/c2cccc(Cl)c2Cl)N=C(c2ccccc2)N1C1CC1 | 3.88 | 14.5

Structure (SMILES) | GI50 [µM] | TGI [µM]
Cc1c2c(C#N)nccc2c(C)c2c1c1ccccc1n2Cc1ccccc1 | – | > 100
COc1ccc(-c2nn(-c3ccc(NC(=O)c4ccc(Cl)c(Cl)c4)cc3)cc2-c2ccncc2)cc1Cl | 0.831 | > 11.6
CN(C)C(n1cc2c(c1)-c1ccc(Cl)cc1C(c1ccccc1F)=NC2)n1cc2c(c1)-c1ccc(Cl)cc1C(c1ccccc1F)=NC2 | – | > 100
CCCc1nc(NC#N)nc(C(=O)Nc2ccccc2)c1CC | – | > 100
O=C(CCc1n[nH]c(=S)o1)Nc1ccccc1C(F)(F)F | – | 85.1
Cc1ccc(NC(=O)CCc2cc(C(C)(C)C)nc(=S)[nH]2)cc1C | – | > 100
O=C(Nc1nc(=S)c2c(ncn2CCOC(=O)c2ccccc2)[nH]1)c1ccccc1 | – | > 100
COc1ccc(CC2NCCc3c2[nH]c2ccccc32)cc1 (stereo not given) | – | > 100
O=C(/C=C/c1cccc2ccccc12)c1ccccc1Cl | – | 47.3
COc1ccc(Nc2nnc(-c3cc(O)ccc3O)s2)cc1 | 8.67 | 21.1
Cc1ccc(/C=C/C(=O)c2sc(-c3nc(C)c(C(=O)/C=C/c4ccc(C)cc4)s3)nc2C)cc1 | – | > 100
O=C1/C(=C/c2ccc(Cl)cc2)CCC1CCN1CCOCC1 (stereo not given) | – | 64.4
CCC[CH2][Sn]([Cl])([CH2]CCC)[CH2]CCC | 0.0171 | 0.168
O=c1ccn([C@H]2CSC[C@@H](CO)C2)c(=O)[nH]1 | – | > 100
COc1cc(-n2cc(-c3ccc(F)cc3)[nH]c2=O)cc(OC)c1OC | > 100 | > 100
C1CN2CCN3CCN4CCN1[P+]243 | – | > 100

The molecules below were run on SK-MEL-2 melanoma (assay: NCI tumour cell line growth inhibition, 48 h).

Structure (SMILES) | GI50 [µM] | TGI
COc1cc(NCc2ccc3nc(N)nc(N)c3c2C)cc(OC)c1OC (tested in a mixture with another compound) | 0.339 | 42.3 µM and 55.1 µM
Cc1nn(-c2ccc(Cl)cc2)c2nc3c(nc12)C(=O)c1ccccc1-3 | > 100 | > 100 µM
COc1ccc(NC(=O)/C(Cc2cc(=O)oc3cc(O)ccc23)=N\NC(C)(C)C)c(OC)c1 | – | > 100 µM
O=C1/C(=C/c2ccc3c(c2)OCO3)SC2C=Nc3ccccc3N12 (stereo not given) | – | > 100 µM
CCOc1ccc(NC(=O)C(=O)CC(=O)c2c(C)n([O-])c3ccccc3[n+]2=O)cc1 | – | > 100 µM
Cc1cc(Cl)ccc1NC(=O)C(=O)Cc1nc2ccccc2o1 | – | > 100 µM
OCC1OC(c2nc(C3=NCCCN3)cs2)C(O)C1O (stereo not given) | – | > 100 µM
O=C1C=CC(=O)c2cc3cc(CBr)ccc3cc21 | 33.3 | > 83.5 µM
CCC(C)COC(=O)c1ccc(N=Cc2ccc(C=Nc3ccc(C(=O)OCC(C)CC)cc3)cc2)cc1 (stereo not given) | – | > 100 µM
COc1cc(F)ccc1-c1ncnc(Nc2cccc(CS(C)(=N)=O)c2)n1 (stereo not given) | 1.08 | 3.47 µM
Cc1cc(N(CCC#N)CCC#N)ccc1N=Nc1ccc(C(=O)O)cc1 | – | > 100 µM
[Cl][Hg][c]1cc[c]([Hg][Cl])o1 | 2.56 | 11.3 µM
CN(C)CC1CCCC/C1=N/OC(=O)c1ccc(Cl)cc1 (stereo not given) | – | > 100 µM
N#CC(C(=O)C(=O)C(C#N)c1ccc(Br)cc1)c1ccc(Br)cc1 (stereo not given) | – | 27.5 µM
COc1cccc(C2=NC(C(C)C)CO2)c1 (stereo not given) | – | > 100 µM
O=C1/C(=C/c2cccc(Cl)c2Cl)N=C(c2ccccc2)N1C1CC1 | 18.5 | > 50 µM
CCOC(=O)C(=[N+]=[N-])[Si](C)(C)C | – | > 100 µM
Cc1c2c(C#N)nccc2c(C)c2c1c1ccccc1n2Cc1ccccc1 | – | > 100 µM

Structure (SMILES) | GI50 [µM] | TGI
CN(C)C(n1cc2c(c1)-c1ccc(Cl)cc1C(c1ccccc1F)=NC2)n1cc2c(c1)-c1ccc(Cl)cc1C(c1ccccc1F)=NC2 | – | > 100 µM
CCCc1nc(NC#N)nc(C(=O)Nc2ccccc2)c1CC | – | > 100 µM
COc1cc2c(cc1OCCCNC(=O)c1cccc3c(=O)c4ccccc4[nH]c13)N=C[C@@H]1CCCN1C2=O | 2.37 | 4.82 µM
Cc1ccc(NC(=O)CCc2cc(C(C)(C)C)nc(=S)[nH]2)cc1C | – | > 100 µM
Cc1[nH]c2ccccc2c1C(=O)/C=C/c1ccccc1O | – | > 100 µM
O=C(Nc1nc(=S)c2c(ncn2CCOC(=O)c2ccccc2)[nH]1)c1ccccc1 | – | > 100 µM
COc1ccc(CC2NCCc3c2[nH]c2ccccc32)cc1 (stereo not given) | – | > 100 µM
CCOc1ccc(NC(=O)CC#N)cc1 | – | > 100 µM
O=C(/C=C/c1cccc2ccccc12)c1ccccc1Cl | – | 34.7 µM
COc1ccc(Nc2nnc(-c3cc(O)ccc3O)s2)cc1 | 23.1 | > 50 µM
Cc1ccc(/C=C/C(=O)c2sc(-c3nc(C)c(C(=O)/C=C/c4ccc(C)cc4)s3)nc2C)cc1 | – | > 100 µM
O=C1/C(=C/c2ccc(Cl)cc2)CCC1CCN1CCOCC1 (stereo not given) | – | > 100 µM
Cn1cc(-c2csc(-c3c[nH]c4ccc(F)cc34)n2)c2cnccc21 | 1.87 | 3.48 µM
CCC[CH2][Sn]([Cl])([CH2]CCC)[CH2]CCC | 0.112 | 0.24 µM
O=c1ccn([C@H]2CSC[C@@H](CO)C2)c(=O)[nH]1 | – | > 100 µM
COc1cc(-n2cc(-c3ccc(F)cc3)[nH]c2=O)cc(OC)c1OC | > 100 | > 100 µM
C1CN2CCN3CCN4CCN1[P+]243 | – | > 100 µM

The molecules below were run on SF-268 CNS (assay: NCI tumour cell line growth inhibition, 48 h).

Structure (SMILES) | GI50 [µM] | TGI [µM]
CN(C)CC[PH+](c1ccccc1)c1ccccc1.CN(C)CC[PH+](c1ccccc1)c1ccccc1.[Cl-].[Pd+2] | > 100 | > 100
COc1cc(NCc2ccc3nc(N)nc(N)c3c2C)cc(OC)c1OC (tested in a mixture with another compound) | – | 66.8
Cc1nn(-c2ccc(Cl)cc2)c2nc3c(nc12)C(=O)c1ccccc1-3 | > 100 | > 100
O=C(c1ccccc1Br)C(F)(F)F | – | > 100
COc1ccc(NC(=O)/C(Cc2cc(=O)oc3cc(O)ccc23)=N\NC(C)(C)C)c(OC)c1 | – | > 100
O=C1/C(=C/c2ccc3c(c2)OCO3)SC2C=Nc3ccccc3N12 (stereo not given) | – | > 100
CCOc1ccc(NC(=O)C(=O)CC(=O)c2c(C)n([O-])c3ccccc3[n+]2=O)cc1 | – | > 100
CCCC(=O)Nc1cc2c3c(c1)CCCN3CCC2 | – | > 10
Cc1cc(Cl)ccc1NC(=O)C(=O)Cc1nc2ccccc2o1 | – | > 100
OCC1OC(c2nc(C3=NCCCN3)cs2)C(O)C1O (stereo not given) | – | > 100
O=C1C=CC(=O)c2cc3cc(CBr)ccc3cc21 | 9.4 | > 73.9
CCC(C)COC(=O)c1ccc(N=Cc2ccc(C=Nc3ccc(C(=O)OCC(C)CC)cc3)cc2)cc1 (stereo not given) | – | > 100
COc1cc(F)ccc1-c1ncnc(Nc2cccc(CS(C)(=N)=O)c2)n1 (stereo not given) | 0.707 | > 100
Cc1cc(N(CCC#N)CCC#N)ccc1N=Nc1ccc(C(=O)O)cc1 | – | > 100
[Cl][Hg][c]1cc[c]([Hg][Cl])o1 | 2.77 | 12.3
CN(C)CC1CCCC/C1=N/OC(=O)c1ccc(Cl)cc1 (stereo not given) | – | > 100
N#CC(C(=O)C(=O)C(C#N)c1ccc(Br)cc1)c1ccc(Br)cc1 (stereo not given) | – | 32.4
COc1cccc(C2=NC(C(C)C)CO2)c1 (stereo not given) | – | > 100
